According to patent publication US20210386367A1, “DEVICES AND SYSTEMS FOR GASTROINTESTINAL MICROBIOME DETECTION AND MANIPULATION” (Progenity, Inc., priority 2018, published 2021):
≈ marks a conversion by molar mass, not a printed value. Where two headings read alike, the source gives them in different places.

Key:
Format in all cases: cell-based
Enterobacter aerogenes = assay: Broth microdilution MIC, 50 clinical isolates
Method in brief: (§1)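 Medium: cation-adjusted MHB, plus 3% lysed horse blood for streptococci, which were incubated with CO2 planchets. Final inoculum approx. 5×10^5 CFU/mL; serial two-fold drug dilutions per CLSI.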

Proteus mirabilis = assay: Broth microdilution MIC, 50 clinical isolates
Method in brief: as §1

Pseudomonas aeruginosa = assay: Broth microdilution MIC, 50 clinical isolates
Method in brief: as §1

Prevotella spp. = assay: Agar dilution MIC, 30 clinical isolates
[1] = 30 Prevotella spp. clinical isolates

CO[C@H]1/C=C/O[C@@]2(C)Oc3c(C)c(O)c4c(O)c(c5c(nc6cc(C)ccn65)c4c3C2=O)NC(=O)/C(C)=C\C=C\[C@H](C)[C@H](O)[C@@H](C)[C@@H](O)[C@@H](C)[C@H](OC(C)=O)[C@@H]1C [rifaximin]
MIC50 (Enterobacter aerogenes): 16 µg/mL (≈ 20.4 µM)
MIC90 (Enterobacter aerogenes): 64 µg/mL (≈ 81.4 µM)
Mode (Enterobacter aerogenes): 16 µg/mL
Cumulative percentage of isolates inhibited at MIC (Enterobacter aerogenes; 8 μg/mL): 20.0%
Number of test isolates at MIC (Enterobacter aerogenes; 8 μg/mL): 10
Cumulative percentage of isolates inhibited at MIC (Enterobacter aerogenes; 16 μg/mL): 64.0%
Number of test isolates at MIC (Enterobacter aerogenes; 16 μg/mL): 22
Cumulative percentage of isolates inhibited at MIC (Enterobacter aerogenes; 32 μg/mL): 88.0%
Number of test isolates at MIC (Enterobacter aerogenes; 32 μg/mL): 12
Cumulative percentage of isolates inhibited at MIC (Enterobacter aerogenes; 64 μg/mL): 98.0%
Number of test isolates at MIC (Enterobacter aerogenes; 64 μg/mL): 5
Cumulative percentage of isolates inhibited at MIC (Enterobacter aerogenes; >64 μg/mL): 100.0%
Number of test isolates at MIC (Enterobacter aerogenes; >64 μg/mL): 1
MIC50 (Proteus mirabilis): 4 µg/mL (≈ 5.09 µM)
MIC90 (Proteus mirabilis): 8 µg/mL (≈ 10.2 µM)
Mode (Proteus mirabilis): 4 µg/mL
Cumulative percentage of isolates inhibited at MIC (Proteus mirabilis; 4 μg/mL): 84.0%
Number of test isolates at MIC (Proteus mirabilis; 4 μg/mL): 42
Cumulative percentage of isolates inhibited at MIC (Proteus mirabilis; 8 μg/mL): 96.0%
Number of test isolates at MIC (Proteus mirabilis; 8 μg/mL): 6
Cumulative percentage of isolates inhibited at MIC (Proteus mirabilis; >64 μg/mL): 100.0%
Number of test isolates at MIC (Proteus mirabilis; >64 μg/mL): 2
MIC50 (Pseudomonas aeruginosa): 8 µg/mL (≈ 10.2 µM)
MIC90 (Pseudomonas aeruginosa): 16 µg/mL (≈ 20.4 µM)
Mode (Pseudomonas aeruginosa): 8 µg/mL
Cumulative percentage of isolates inhibited at MIC (Pseudomonas aeruginosa; 4 μg/mL): 16.0%
Number of test isolates at MIC (Pseudomonas aeruginosa; 4 μg/mL): 8
Cumulative percentage of isolates inhibited at MIC (Pseudomonas aeruginosa; 8 μg/mL): 66.0%
Number of test isolates at MIC (Pseudomonas aeruginosa; 8 μg/mL): 25
Cumulative percentage of isolates inhibited at MIC (Pseudomonas aeruginosa; 16 μg/mL): 94.0%
Number of test isolates at MIC (Pseudomonas aeruginosa; 16 μg/mL): 14
Cumulative percentage of isolates inhibited at MIC (Pseudomonas aeruginosa; 32 μg/mL): 96.0%
Number of test isolates at MIC (Pseudomonas aeruginosa; 32 μg/mL): 1
Cumulative percentage of isolates inhibited at MIC (Pseudomonas aeruginosa; 64 μg/mL): 98.0%
Number of test isolates at MIC (Pseudomonas aeruginosa; 64 μg/mL): 1
Cumulative percentage of isolates inhibited at MIC (Pseudomonas aeruginosa; >64 μg/mL): 100.0%
Number of test isolates at MIC (Pseudomonas aeruginosa; >64 μg/mL): 1
MIC50 (Prevotella spp.): 0.12 µg/mL (≈ 0.153 µM)
MIC90 (Prevotella spp.): 1 µg/mL (≈ 1.27 µM)
MIC50 (Prevotella spp.; [1]): 0.12 µg/mL (≈ 0.153 µM)
MIC90 (Prevotella spp.; [1]): 1 µg/mL (≈ 1.27 µM)
MIC range (Prevotella spp.; [1]): 0.03 to 32 µg/mL
Mode (Prevotella spp.; modal MIC, 30 Prevotella spp. clinical isolates): 0.12 µg/mL
